Values quoted from earlier work in patent US20230233583A1, “USE OF PHYTOCANNABINOIDS FOR TREATING MULTIPLE MYELOMA” (priority 2020, published 2023).

Test system: MM cells
Details: reported in literature (ref. 3); by itself or in synergy with bortezomib; cited from earlier work

## C=C(C)[C@@H]1CCC(C)=C[C@H]1c1c(O)cc(CCCCC)cc1O [CBD, cannabidiol]
  growth of MM cells, in words: strongly inhibited growth
